What follows are compounds tested on HCV replicon, genotype-1a variant with glutamine 30 changed to glutamate in the NS5A protein (assay: microbe, parasite or virus in culture). Conditions: HCV replicon genotype 1a Q30E (Q→E) variant; test compound titrated with an NS5A-targeting compound (BMS-790052 fixed at 200 nM); ranking of synergist activity.
Format: cell-based, HCV genotype 1a
Excerpt: The NS5A synergistic inhibitory effect of test compounds can be determined using various amounts of an NS5A-targeting compound with titration of a second compound of interest. […] In one embodiment, the HCV genotype strain can be genotype 1a containing a change at amino acid 30 of the NS5A protein consisting of glutamine to glutamate. The test compound can be chosen from compounds listed above or from others present in the literature.
For `CC(C)[C@H](NC(=O)C(C)(C)F)c1nc(-c2ccc3c(c2)CCc2cc(-c4c[nH]c([C@@H](NC(=O)C(C)(C)F)C(C)C)n4)ccc2-3)c[nH]1` [Compound N-75], the “Fold-Synergistic 1a (Q30E)” value was >100 fold. For `CC(C)(C)[C@H](NC(=O)C1(C(F)F)CCCCO1)c1nc(-c2ccc(-c3ccc(-c4c[nH]c([C@@H](NC(=O)C5(C(F)F)CCCCO5)C(C)(C)C)n4)cc3)cc2)c[nH]1` (stereo partly shown) [Compound P-179], the “Fold-Synergistic 1a (Q30E)” value was >100 fold. For `CC(C)(C)[C@H](NC(=O)C(=O)N(CCC#N)C1CC1)c1nc(-c2ccc(-c3ccc(-c4c[nH]c([C@@H](NC(=O)C(=O)N(CCC#N)C5CC5)C(C)(C)C)n4)cc3)cc2)c[nH]1` [Compound W-48], the “Fold-Synergistic 1a (Q30E)” value was >100 fold. For `CC(C)(C)[C@H](NC(=O)C1(N2CCC(F)(F)CC2)COC1)c1nc(-c2ccc(-c3ccc(-c4c[nH]c([C@@H](NC(=O)C5(N6CCC(F)(F)CC6)COC5)C(C)(C)C)n4)cc3)cc2)c[nH]1` [Compound W-63], the “Fold-Synergistic 1a (Q30E)” value was >100 fold. With `CC(C)[C@H](NC(=O)C(C)(C)C)c1nc(-c2ccc(-c3ccc(-c4c[nH]c([C@@H](NC(=O)C(C)(C)C)C(C)C)n4)cn3)cc2)c[nH]1` [Compound N-103] the “Fold-Synergistic 1a (Q30E)” value was >100 fold. For `CC(C)[C@H](NC(=O)C1(C)CCCCC1)c1nc(-c2ccc3c(c2)Cc2cc(-c4c[nH]c([C@@H](NC(=O)C5(C)CCCCC5)C(C)C)n4)ccc2-3)c[nH]1` [Compound N-69], the “Fold-Synergistic 1a (Q30E)” value was >100 fold. `CCCC(C)(C)C(=O)N1CCC[C@H]1c1ncc(-c2ccc(-c3ccc(-c4cnc([C@@H]5CCCN5C(=O)C(C)(C)CCC)[nH]4)cc3)cc2)[nH]1` [Compound S-190] was tested, and the “Fold-Synergistic 1a (Q30E)” value was <10 fold. In the case of `CC(C)[C@@H](O)C(=O)N[C@H](c1nc(-c2ccc(-c3ccc(-c4c[nH]c([C@@H](NC(=O)[C@H](O)C(C)C)C(C)(C)C)n4)cc3)cc2)c[nH]1)C(C)(C)C` [Compound L-82], the “Fold-Synergistic 1a (Q30E)” value is reported as >100 fold. For `O=C(c1ccc(-c2ccccc2)cc1)N1CCC[C@H]1c1ncc(-c2ccc(-c3ccc(-c4cnc([C@@H]5CCCN5C(=O)c5ccc(-c6ccccc6)cc5)[nH]4)cc3)cc2)[nH]1` [Compound S-117], the “Fold-Synergistic 1a (Q30E)” value was >10 fold. For `O=C(c1ccnnc1)N1CCC[C@H]1c1ncc(-c2ccc(-c3ccc(-c4cnc([C@@H]5CCCN5C(=O)c5ccnnc5)[nH]4)cc3)cc2)[nH]1` [Compound S-187], the “Fold-Synergistic 1a (Q30E)” value was <10 fold. For `CCN(CC)C(=O)C(=O)N[C@H](c1nc(-c2ccc(-c3ccc(-c4c[nH]c([C@@H](NC(=O)C(=O)N(CC)CC)C(C)(C)C)n4)cc3)cc2)c[nH]1)C(C)(C)C` [Compound W-33], the “Fold-Synergistic 1a (Q30E)” value was >100 fold. With `Cc1ccoc1C(=O)N1CCC[C@H]1c1ncc(-c2ccc(-c3ccc(-c4cnc([C@@H]5CCCN5C(=O)c5occc5C)[nH]4)cc3)cc2)[nH]1` [Compound S-189] the “Fold-Synergistic 1a (Q30E)” value was >10 fold. For `COc1cccc2c(C(=O)N3CCC[C@H]3c3ncc(-c4ccc(-c5ccc(-c6cnc([C@@H]7CCCN7C(=O)c7nccc8c(OC)cccc78)[nH]6)cc5)cc4)[nH]3)nccc12` [Compound S-201], the “Fold-Synergistic 1a (Q30E)” value was >100 fold. `CC(C)(C)[C@H](NC(=O)C12CCC(CC1)C2)c1nc(-c2ccc(-c3ccc(-c4c[nH]c([C@@H](NC(=O)C56CCC(CC5)C6)C(C)(C)C)n4)cc3)cc2)c[nH]1` [Compound S-261] was tested, and the “Fold-Synergistic 1a (Q30E)” value was >100 fold. For `CC(C)CC(=O)N[C@@H](Cc1ccc2ccccc2c1)c1nc(-c2ccc(-c3ccc(-c4c[nH]c([C@H](Cc5ccc6ccccc6c5)NC(=O)CC(C)C)n4)cc3)cc2)c[nH]1` [Compound P-8], the “Fold-Synergistic 1a (Q30E)” value was <10 fold. In the case of `O=C(c1cccc2cnccc12)N1CCC[C@H]1c1ncc(-c2ccc(-c3ccc(-c4cnc([C@@H]5CCCN5C(=O)c5cccc6cnccc56)[nH]4)cc3)cc2)[nH]1` [Compound S-203], the “Fold-Synergistic 1a (Q30E)” value is reported as <10 fold. `CC(C)(C(=O)NCC(F)(F)F)C(=O)N[C@H](c1nc(-c2ccc(-c3ccc(-c4c[nH]c([C@@H](NC(=O)C(C)(C)C(=O)NCC(F)(F)F)C(C)(C)C)n4)cc3)cc2)c[nH]1)C(C)(C)C` [Compound W-139] was tested, and the “Fold-Synergistic 1a (Q30E)” value was >100 fold. For `CC(C)(C)[C@H](NC(=O)C(C)(O)C(F)(F)F)c1nc(-c2ccc(-c3ccc(-c4c[nH]c([C@@H](NC(=O)C(C)(O)C(F)(F)F)C(C)(C)C)n4)cc3)cc2)c[nH]1` (stereo partly drawn) [Compound L-66a], the “Fold-Synergistic 1a (Q30E)” value was >100 fold. `COC(=O)N[C@H](C(=O)NC1(c2nc(-c3ccc(-c4ccc(-c5c[nH]c(C6(NC(=O)[C@@H](NC(=O)OC)C(C)C)Cc7ccccc7C6)n5)cc4)cc3)c[nH]2)Cc2ccccc2C1)C(C)C` [Compound N-18] was tested, and the “Fold-Synergistic 1a (Q30E)” value was <10 fold. In the case of `CC(C)(C)[C@H](NC(=O)C1C2C3CCC(C3)C12)c1nc(-c2ccc(-c3ccc(-c4c[nH]c([C@@H](NC(=O)C5C6C7CCC(C7)C56)C(C)(C)C)n4)cc3)cc2)c[nH]1` (stereo partly shown) [Compound Y-62], the “Fold-Synergistic 1a (Q30E)” value is reported as >100 fold. For `CCOC(=O)C(C)(C)C(=O)N[C@H](c1nc(-c2ccc(-c3ccc(-c4c[nH]c([C@@H](NC(=O)C(C)(C)C(=O)OCC)C(C)(C)C)n4)cc3)cc2)c[nH]1)C(C)(C)C` [Compound W-126], the “Fold-Synergistic 1a (Q30E)” value was >100 fold. With `CC(=O)OC1C2CCCC1(C(=O)N[C@H](c1nc(-c3ccc(-c4ccc(-c5c[nH]c([C@@H](NC(=O)C67CCCC(CCC6)C7OC(C)=O)C(C)(C)C)n5)cc4)cc3)c[nH]1)C(C)(C)C)CCC2` (stereo partly shown) [Compound S-274] the “Fold-Synergistic 1a (Q30E)” value was >100 fold. With `Cc1cc(-c2ccc(-c3c[nH]c([C@@H](NC(=O)C4CCC(F)(F)CC4)C(C)C)n3)cc2)ccc1-c1c[nH]c([C@@H](NC(=O)C2CCC(F)(F)CC2)C(C)C)n1` [Compound N-82] the “Fold-Synergistic 1a (Q30E)” value was >100 fold. With `CC(C)CC(=O)N[C@H](c1nc(-c2ccc3cc(-c4ccc(-c5cnc([C@@H](NC(=O)CC(C)C)C(C)(C)C)[nH]5)cc4)ccc3c2)c[nH]1)C(C)(C)C` [Compound N-9] the “Fold-Synergistic 1a (Q30E)” value was >10 fold. With `N#CCC(=O)N1CCC[C@H]1c1ncc(-c2ccc(-c3ccc(-c4cnc([C@@H]5CCCN5C(=O)CC#N)[nH]4)cc3)cc2)[nH]1` [Compound S-171] the “Fold-Synergistic 1a (Q30E)” value was <10 fold. `O=C(c1ncc(Cl)c2ccccc12)N1CCC[C@H]1c1ncc(-c2ccc(-c3ccc(-c4cnc([C@@H]5CCCN5C(=O)c5ncc(Cl)c6ccccc56)[nH]4)cc3)cc2)[nH]1` [Compound S-200] was tested, and the “Fold-Synergistic 1a (Q30E)” value was >100 fold. `CCN(CC(F)(F)F)C(=O)C(=O)N[C@H](c1nc(-c2ccc(-c3ccc(-c4c[nH]c([C@@H](NC(=O)C(=O)N(CC)CC(F)(F)F)C(C)(C)C)n4)cc3)cc2)c[nH]1)C(C)(C)C` [Compound W-37] was tested, and the “Fold-Synergistic 1a (Q30E)” value was >100 fold. With `CC(C)(C)C(=O)N1CCC[C@H]1c1ncc(-c2ccc(-c3ccc(-c4cnc([C@@H]5CCCN5C(=O)C(C)(C)C)[nH]4)cc3)cc2)[nH]1` [Compound S-177] the “Fold-Synergistic 1a (Q30E)” value was <10 fold. In the case of `CCC(C)CC(=O)N1CCC[C@H]1c1ncc(-c2ccc(-c3ccc(-c4cnc([C@@H]5CCCN5C(=O)CC(C)CC)[nH]4)cc3)cc2)[nH]1` (stereo partly shown) [Compound S-172], the “Fold-Synergistic 1a (Q30E)” value is reported as >10 fold. In the case of `O=C(c1nc2ccccc2s1)N1CCC[C@H]1c1ncc(-c2ccc(-c3ccc(-c4cnc([C@@H]5CCCN5C(=O)c5nc6ccccc6s5)[nH]4)cc3)cc2)[nH]1` [Compound S-141], the “Fold-Synergistic 1a (Q30E)” value is reported as >10 fold. `COc1cccc2c(C(=O)N3C(c4ncc(-c5ccc(-c6ccc(-c7cnc(C8C[C@H]9C[C@H]9N8C(=O)c8nc(Cl)cc9c(OC)cccc89)[nH]7)cc6)cc5)[nH]4)C[C@H]4C[C@H]43)nc(Cl)cc12` (stereo partly shown) [Compound P-49] was tested, and the “Fold-Synergistic 1a (Q30E)” value was >100 fold.
